Test results from US9840506B2, “Crystal of doripenem, and preparation method therefor” (JW PHARMACEUTICAL CORPORATION, priority 2014, dated 2017).
Values after ≈ are worked out from the molar mass of the structure shown. Like-named read-outs stand apart in the source and are kept apart here. One block for each compound: values may come before it.

Tests used:
Format in all cases: physicochemical
[1] = Solubility of doripenem crystal in water
Method: The solubility of the Type VI doripenem anhydride crystal of Example 3 according to the present invention was measured and compared with that of the Type IV doripenem of Comparative Example 9.
50 mg of each of the Type VI doripenem anhydride crystal of Example 3 and the Type IV doripenem of Comparative Example 9 was added with water until the doripenem was completely dissolved, and the solubility thereof was measured. Meanwhile, 10 mL of water was added with the Type VI doripenem anhydride crystal of Example 3 and the Type IV doripenem of Comparative Example 9 until the doripenem was completely dissolved, and the solubility thereof was measured.

[2] = Stability: max. amount of impurities after standing at 60±5° C. for 3 weeks
Method: In addition, the Type VII doripenem anhydride crystal of Example 7 according to the present invention and the Type IV doripenem of Comparative Example 9 were allowed to stand at 60±5° C. for 3 weeks, and the purity thereof was measured to evaluate the stability.

[3] = TGA loss
Method: Based on the results of TGA, about 4.8% loss occurred in the Type IV doripenem of Comparative Example 9 (FIG. 8) and about 0.46% loss occurred in the Type VI doripenem anhydride crystal of Example 3 according to the present invention (FIG. 7). This means that the novel doripenem crystal, prepared through the method of the present invention, is an anhydride. Furthermore, the water content of the doripenem anhydride crystal according to the present invention was measured and found to be less than about 2%.

[4] = Stability: purity after standing at 60° C. for 3 weeks
Method: In addition, the Type VI doripenem anhydride crystal according to the present invention and the Type IV doripenem were allowed to stand at 60° C. for 3 weeks, and the purity thereof was measured to evaluate the stability.

[5] = Measurement of water content
Method: The doripenem anhydride crystals of Examples 3 and 7 according to the present invention and the Type IV doripenem hydrate of Comparative Example 9 were measured for water content.

[6] = DSC, decomposition temperature / stability at high temperature
Method: When the Type VI doripenem anhydride crystal of Example 3 according to the present invention and the conventional Type IV doripenem were analyzed through differential scanning calorimetry (DSC), the decomposition temperature of the Type VI doripenem anhydride crystal was higher than that of the Type IV doripenem (FIG. 6).
In addition, the decomposition temperature of the Type VII doripenem anhydride crystal of Example 7 according to the present invention was higher than that of the Type IV doripenem hydrate (FIG. 11).

[7] = 2 weeks, listed as Comp. Example 9
[8] = 3 weeks, listed as Comp. Example 9

solubility ([1]; at 22° C.): 20 mg/mL (≈ 47.6 mM)
Max. Amount of impurities (%) ([2]; 1 week): 0.08%
Max. Amount of impurities (%) [2, 7]: 0.23%
increase of maximum amount of impurities over time ([2]; 3 weeks): 0.22%
Max. Amount of impurities (%) [2, 8]: 0.28%
Max. Amount of impurities (%) ([2]; Initial): 0.06%
loss in TGA [3]: about 4.8%
Purity (%) ([4]; 1 week, listed as Comp. Example 9): 99.0%
Purity (%) [4, 7]: 98.2%
Purity (%) [4, 8]: 97.3%
decrease of purity over time ([4]; 3 weeks, listed as Type IV doripenem): 2.56%
Purity (%) ([4]; Initial, listed as Comp. Example 9): 99.8%
SMILES: C[C@@H](O)[C@H]1C(=O)N2C(C(=O)O)=C(S[C@@H]3CN[C@H](CNS(N)(=O)=O)C3)[C@H](C)[C@H]12 [Comparative Example 9, doripenem]

solubility ([1]; 22 °C, thermodynamic from solid, at 20 to 25° C., read-out: solubility): 55 to 65 mg/mL (≈ 131 to 155 mM)
Water content ([5]; listed as Type VI doripenem anhydride crystal): less than 2%
loss in TGA [3]: about 0.46%
Purity (%) ([4]; 1 week): 99.4%
Purity (%) ([4]; 2 weeks): 98.8%
Purity (%) ([4]; 3 weeks): 98.7%
decrease of purity over time ([4]; 3 weeks): less than 1%
Purity (%) ([4]; Initial): 99.6%
stability at high temperature (DSC decomposition temperature) compared to Type IV doripenem hydrate [6]: superior stability at high temperature
SMILES: C[C@@H](O)[C@H]1C(=O)N2C(C(=O)O)=C(S[C@@H]3CN[C@H](CNS(N)(=O)=O)C3)[C@H](C)[C@H]12 [Example 3, doripenem]

solubility ([1]; 22 °C, thermodynamic from solid, measured in the same manner as for Example 3, read-out: solubility): 30 to 35 mg/mL (≈ 71.3 to 83.2 mM)
Max. Amount of impurities (%) ([2]; 1 week): 0.08%
Max. Amount of impurities (%) ([2]; 2 weeks): 0.08%
Max. Amount of impurities (%) ([2]; 3 weeks): 0.08%
increase of maximum amount of impurities over time ([2]; 3 weeks): 0.02%
Max. Amount of impurities (%) ([2]; Initial): 0.06%
Water content ([5]; listed as Type VII doripenem anhydride crystal): less than 2%
stability at high temperature (DSC decomposition temperature) compared to Type IV doripenem hydrate [6]: superior stability at high temperature
SMILES: C[C@@H](O)[C@H]1C(=O)N2C(C(=O)O)=C(S[C@@H]3CN[C@H](CNS(N)(=O)=O)C3)[C@H](C)[C@H]12 [Example 7, doripenem]
